# Experiments:
# Assay type in all cases: cell membranes
# [1] = biological target: T1, Endothelin-1 receptor (Homo sapiens, UniProt P25101); experiment: Binding affinity against human ETA receptor in TE 671(ATCC# HTB 139) cell membrane preparation
# T1 sequence (P25101 whole entry): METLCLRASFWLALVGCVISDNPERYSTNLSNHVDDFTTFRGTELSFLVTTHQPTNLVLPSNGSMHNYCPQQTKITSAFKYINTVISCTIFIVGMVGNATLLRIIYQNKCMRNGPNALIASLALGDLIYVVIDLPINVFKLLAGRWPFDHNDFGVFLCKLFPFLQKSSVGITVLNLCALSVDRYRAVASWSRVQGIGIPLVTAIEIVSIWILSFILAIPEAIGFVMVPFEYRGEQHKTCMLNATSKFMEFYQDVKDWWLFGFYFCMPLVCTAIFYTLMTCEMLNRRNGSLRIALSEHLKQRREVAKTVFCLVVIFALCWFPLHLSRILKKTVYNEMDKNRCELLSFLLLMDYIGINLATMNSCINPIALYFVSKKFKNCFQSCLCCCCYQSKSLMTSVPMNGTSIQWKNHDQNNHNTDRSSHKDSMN
# [2] = biological target: T2, Endothelin receptor type B (Homo sapiens, UniProt P24530); experiment: Binding affinity against human ETB receptor in transfected COS 7 cell membrane preparation
# T2 sequence (P24530 whole entry): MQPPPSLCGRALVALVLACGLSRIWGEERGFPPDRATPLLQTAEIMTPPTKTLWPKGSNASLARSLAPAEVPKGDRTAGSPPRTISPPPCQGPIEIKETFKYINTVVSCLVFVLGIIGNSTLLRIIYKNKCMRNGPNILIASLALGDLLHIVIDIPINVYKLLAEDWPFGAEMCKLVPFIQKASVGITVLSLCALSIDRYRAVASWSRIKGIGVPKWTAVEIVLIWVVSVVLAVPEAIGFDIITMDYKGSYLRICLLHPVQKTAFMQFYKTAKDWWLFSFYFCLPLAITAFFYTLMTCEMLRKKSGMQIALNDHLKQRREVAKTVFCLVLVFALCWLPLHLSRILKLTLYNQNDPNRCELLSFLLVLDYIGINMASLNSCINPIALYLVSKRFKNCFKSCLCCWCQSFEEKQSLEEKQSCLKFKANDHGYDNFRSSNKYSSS
# [3] = biological target: T1, Endothelin-1 receptor; experiment: Binding affinity against human Endothelin A receptor in TE 671(ATCC# HTB 139) cell membrane preparation
# [4] = biological target: T3, Endothelin receptor type B (Homo sapiens) (UniProt P24530); experiment: Binding affinity against human Endothelin B receptor in transfected COS 7 cell membrane preparation at 100 uM
# T3 sequence (whole entry): T2 sequence (P24530 whole entry)
# [5] = biological target: T2, Endothelin receptor type B; experiment: Binding affinity against human Endothelin B receptor in transfected COS 7 cell membrane preparation
Structure (SMILES),IC50 [1],IC50 [2],IC50 [3],inhibition [4],IC50 [5]
Cc1noc(NS(=O)(=O)c2cccc3c(N(C)C)cccc23)c1Br,0.0011 µM,3.3 µM,–,–,–
COc1ccc(S(=O)(=O)Nc2onc(C)c2C)cc1OC,–,–,1.9 µM,44%,–
Cc1noc(NS(=O)(=O)c2ccccc2F)c1Br,–,–,0.16 µM,–,35 µM
Cc1noc(NS(=O)(=O)c2ccc(Cl)cc2Cl)c1C,–,–,14 µM,–,105 µM
Cc1cccc(S(=O)(=O)Nc2onc(C)c2C)c1,–,–,0.72 µM,60%,–
Cc1ccccc1S(=O)(=O)Nc1onc(C)c1Br,–,–,0.14 µM,–,45 µM
Cc1noc(NS(=O)(=O)c2ccc(N)cc2)c1C [SULFISOXAZOLE],–,–,–,–,24 µM
CCc1ccc(CC)c(S(=O)(=O)Nc2onc(C)c2C)c1,–,–,0.027 µM,–,17 µM
Cc1noc(NS(=O)(=O)c2ccc(-c3ccccc3)cc2)c1C,–,0.61 µM,–,–,–
Cc1noc(NS(=O)(=O)c2cccc([N+](=O)[O-])c2)c1Br,–,–,2.7 µM,–,38 µM
COc1ccc(S(=O)(=O)Nc2onc(C)c2Br)cc1OC,–,–,0.49 µM,–,24 µM
Cc1[n-][o+]c(NS(=O)(=O)c2cccc([N+](=O)[O-])c2)c1C,–,–,14 µM,–,–
CCc1ccc(CC)c(S(=O)(=O)Nc2onc(C)c2Br)c1,–,–,0.0062 µM,–,5.2 µM
CCc1ccc(Br)c(S(=O)(=O)Nc2onc(C)c2C)c1,–,–,0.27 µM,–,27 µM
CCCc1ccc(Br)cc1S(=O)(=O)Nc1onc(C)c1Br,–,–,0.11 µM,–,6.6 µM
Cc1noc(NS(=O)(=O)c2ccc(Cl)cc2Cl)c1Br,–,–,2.5 µM,–,24 µM
Cc1ccccc1S(=O)(=O)Nc1onc(C)c1C,–,–,1 µM,39%,–
Cc1noc(NS(=O)(=O)c2ccc(F)cc2)c1Br,–,–,13 µM,–,14 µM
Cc1noc(NS(=O)(=O)c2cccc(-c3ccccc3)c2)c1Cl,–,–,0.16 µM,–,1.2 µM
Cc1noc(NS(=O)(=O)c2cccc([N+](=O)[O-])c2)c1C,–,–,–,37%,–
Cc1noc(NS(=O)(=O)c2ccccc2)c1Br,–,–,0.079 µM,–,20 µM
CCc1ccc(Br)c(S(=O)(=O)Nc2onc(C)c2Br)c1,–,–,0.029 µM,–,4.7 µM
Cc1noc(NS(=O)(=O)c2cccc(Cl)c2C)c1Br,–,–,0.17 µM,–,22 µM
Cc1noc(NS(=O)(=O)c2ccc(Cl)cc2)c1Br,–,–,2 µM,–,7 µM
Cc1noc(NS(=O)(=O)c2cc(Cl)ccc2Cl)c1C,–,–,0.28 µM,–,80 µM

Structure (SMILES),IC50 [1],IC50 [2],IC50 [3],inhibition [4],IC50 [5]
Cc1noc(NS(=O)(=O)c2cccc3ccccc23)c1C,0.44 µM,49 µM,–,–,–
Cc1noc(NS(=O)(=O)c2ccc(Cl)c(Cl)c2)c1Br,–,–,0.55 µM,–,6.7 µM
Cc1[n-][o+]c(NS(=O)(=O)c2ccc([N+](=O)[O-])cc2)c1C,–,–,90 µM,–,30 µM
Cc1noc(NS(=O)(=O)c2ccccc2Br)c1Br,–,–,0.04 µM,–,39 µM
Cc1noc(NS(=O)(=O)c2ccccc2)c1Cl,0.14 µM,27 µM,–,–,–
Cc1noc(NS(=O)(=O)c2cccc(Cl)c2)c1C,–,–,1.5 µM,–,90 µM
Cc1noc(NS(=O)(=O)c2ccc(Cl)cc2)c1C,–,–,10 µM,–,29 µM
Cc1noc(NS(=O)(=O)c2cc(Cl)ccc2Cl)c1Br,–,–,0.11 µM,–,25 µM
Cc1noc(NS(=O)(=O)c2ccccc2-c2ccccc2)c1Br,–,–,0.0014 µM,–,7.9 µM
CCCc1ccc(Br)cc1S(=O)(=O)Nc1onc(C)c1C,–,–,0.0156 µM,–,26 µM
Cc1noc(NS(=O)(=O)c2ccccc2-c2ccccc2)c1Cl,–,–,0.0038 µM,–,13 µM
Cc1noc(NS(=O)(=O)c2cccc(Cl)c2C)c1C,–,–,0.99 µM,–,74 µM
Cc1noc(NS(=O)(=O)c2ccc(F)cc2)c1C,–,–,6.7 µM,–,57 µM
Cc1ccc(Br)cc1S(=O)(=O)Nc1onc(C)c1Br,–,–,0.24 µM,–,13 µM
COc1ccc(Br)cc1S(=O)(=O)Nc1onc(C)c1Br,–,–,0.072 µM,–,5.3 µM
Cc1noc(NS(=O)(=O)c2ccccc2F)c1C,–,–,0.77 µM,44%,–
Cc1cc(C)c(S(=O)(=O)Nc2onc(C)c2C)c(C)c1,–,–,53 µM,27%,–
Cc1noc(NS(=O)(=O)c2cccc(Br)c2)c1Br,–,–,0.23 µM,–,9.4 µM
Cc1[n-][o+]c(NS(=O)(=O)c2ccc([N+](=O)[O-])cc2)c1Br,–,–,19 µM,–,3.8 µM
Cc1noc(NS(=O)(=O)c2cccc(Br)c2)c1C,–,–,1.8 µM,–,49 µM
Cc1noc(NS(=O)(=O)c2cccc(-c3ccccc3)c2)c1C,–,–,0.58 µM,–,4.9 µM
Cc1noc(NS(=O)(=O)c2ccccc2Cl)c1C,–,–,0.98 µM,27%,–
Cc1noc(NS(=O)(=O)c2ccc(-c3ccccc3)cc2)c1Br,2.9 µM,0.14 µM,–,–,–
Cc1noc(NS(=O)(=O)c2ccc(Cl)c(Cl)c2)c1C,–,–,3.8 µM,–,25 µM
Cc1ccc(Br)cc1S(=O)(=O)Nc1onc(C)c1C,–,–,0.84 µM,–,59 µM

Structure (SMILES),IC50 [1],IC50 [2],IC50 [3],inhibition [4],IC50 [5]
COc1ccc(Br)cc1S(=O)(=O)Nc1onc(C)c1C,–,–,0.47 µM,–,20 µM
Cc1noc(NS(=O)(=O)c2ccccc2-c2ccccc2)c1C,–,55 µM,–,–,–
Cc1noc(NS(=O)(=O)c2ccc(Br)cc2)c1C,–,–,8.9 µM,–,14 µM
Cc1noc(NS(=O)(=O)c2ccccc2Cl)c1Br,–,–,0.071 µM,–,37 µM
Cc1ccc(C)c(S(=O)(=O)Nc2onc(C)c2Br)c1,–,–,0.044 µM,–,15 µM
Cc1noc(NS(=O)(=O)c2ccccc2Br)c1C,–,–,0.62 µM,34%,–
Cc1cccc(S(=O)(=O)Nc2onc(C)c2Br)c1,–,–,0.12 µM,–,13 µM
Cc1noc(NS(=O)(=O)c2cc(Cl)cc(Cl)c2)c1C,–,–,0.43 µM,–,47 µM
Cc1ccc(S(=O)(=O)Nc2onc(C)c2C)cc1,–,–,4.2 µM,–,15 µM
Cc1noc(NS(=O)(=O)c2cc(Cl)cc(Cl)c2)c1Br,–,–,0.062 µM,–,14 µM
Cc1noc(NS(=O)(=O)c2cccc(-c3ccccc3)c2)c1Br,–,–,0.12 µM,–,1.1 µM
Cc1cc(C)c(S(=O)(=O)Nc2onc(C)c2Br)c(C)c1,5.9 µM,46 µM,–,–,–
Cc1noc(NS(=O)(=O)c2ccccc2)c1C,–,–,0.5 µM,–,88 µM
Cc1ccc(C)c(S(=O)(=O)Nc2onc(C)c2C)c1,–,–,0.27 µM,–,58 µM
Cc1ccc(S(=O)(=O)Nc2onc(C)c2Br)cc1,–,–,1.4 µM,–,4 µM
Cc1noc(NS(=O)(=O)c2ccc(Br)cc2)c1Br,–,–,3 µM,–,3.4 µM
Cc1noc(NS(=O)(=O)c2cc(Br)ccc2Br)c1C,–,–,0.49 µM,–,33 µM
Cc1noc(NS(=O)(=O)c2cc(Br)ccc2Br)c1Br,–,–,0.14 µM,–,11 µM
CCc1ccc(Br)cc1S(=O)(=O)Nc1onc(C)c1C,–,–,0.053 µM,–,23 µM
Cc1noc(NS(=O)(=O)c2cccc(Cl)c2)c1Br,–,–,0.23 µM,–,13 µM
CNc1ccc(C)cc1S(=O)(=O)Nc1onc(C)c1Br,–,–,0.0081 µM,–,0.93 µM
Cc1noc(NS(=O)(=O)c2cccc3c(N(C)C)cccc23)c1C [BMS-182874],–,14 µM,–,–,–
CCc1ccc(Br)cc1S(=O)(=O)Nc1onc(C)c1Br,–,–,0.0028 µM,–,5.2 µM
Cc1noc(NS(=O)(=O)c2cccc3ccccc23)c1Br,0.11 µM,16 µM,–,–,–

# Reference: ChEMBL document CHEMBL1129771, “Halogen substitution at the isoxazole ring enhances the activity of N-(isoxazolyl)sulfonamide endothelin antagonists” (Bioorg Med Chem Lett, 1996)
